Patent US10316017B2, “COT modulators and methods of use thereof” (Gilead Sciences, Inc., priority 2015, dated 2019)
Like-named read-outs stand apart in the source and are kept apart here.

Assays:
[1] = system: TNFα production in LPS-stimulated human monocytes; assay: Cot Monocyte TNFα Cell Based Assay; conditions: Homo sapiens, Monocyte, read-out: EC50 TNF
Procedure, shortened: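 Human monocytes (5,000 cells/well) pretreated with compound for 1 hour at 37° C (0.5% DMSO), then stimulated with 50 pg/ml LPS for 4 hours. Total TNFα measured by TR-FRET after overnight antibody incubation at room temp, expressed as percent of control between unstimulated and stimulated cells.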

[2] = target: T1, human Cot catalytic domain (30-397 amino acids) (Homo sapiens, UniProt P41279); assay: High Throughput Cot Biochemical Assay (KinEASE TR-FRET); conditions: read-out: IC50 HTRF
T1 construct: Purified recombinant human Cot catalytic domain (30-397 amino acids) was purchased from Cama Biosciences; purchased Cama Biosciences (so in the source)
Procedure, shortened: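 Recombinant human Cot catalytic domain (aa 30-397), 5 nM, with 1 μM STK3 peptide and 400 μM ATP in MOPS pH 7.0 buffer with MgOAc, DTT, BSA, NP-40, glycerol, 0.1% DMSO. Phosphorylated XL665-peptide detected by Eu-[…] antibody TR-FRET.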

[3] = LPS-stimulated human monocytes, TNFα TR-FRET
[4] = Cot KinEASE TR-FRET, 400 μM ATP
[5] = TNFα in LPS-stimulated human monocytes
[6] = Cot biochemical HTRF (KinEASE TR-FRET) assay
[7] = Cot KinEASE TR-FRET (HTRF) biochemical assay, 400 μM ATP

T1 sequence (P41279 30-397): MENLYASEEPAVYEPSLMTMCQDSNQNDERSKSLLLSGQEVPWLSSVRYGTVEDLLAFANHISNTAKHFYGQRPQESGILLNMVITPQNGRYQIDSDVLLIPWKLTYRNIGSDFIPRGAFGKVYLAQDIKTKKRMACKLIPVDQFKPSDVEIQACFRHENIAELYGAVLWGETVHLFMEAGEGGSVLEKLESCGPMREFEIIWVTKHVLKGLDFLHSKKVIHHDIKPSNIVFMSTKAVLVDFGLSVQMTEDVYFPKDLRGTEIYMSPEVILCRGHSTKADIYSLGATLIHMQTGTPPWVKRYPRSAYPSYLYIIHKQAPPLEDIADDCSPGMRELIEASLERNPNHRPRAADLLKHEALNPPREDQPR

EC50 [1, 3] [nM] | IC50 [2, 4] [nM] | EC50 [1, 5] [nM] | IC50 [2, 6] [nM] | IC50 [2, 7] [nM] | Structure (SMILES)
614 | 75 |  |  |  | Cc1c(F)cccc1[C@H](Nc1cc(Cl)c2ncc(C#N)c(NCC(C)(C)C)c2c1)c1cn(C2(C(F)(F)F)CC2)nn1 [Example 1090, (S)-8-chloro-6-(((3-fluoro-2-methylphenyl)(1-(1-(trifluoromethyl)cyclopropyl)-1H-1,2,3-triazol-4-yl)methyl)amino)-4-(neopentylamino)quinoline-3-carbonitrile]
 |  | 109 | 7 |  | CC(C)(C)N1CCC(n2cc([C@@H](Nc3cc(Cl)c4ncc(C#N)c(Nc5cccc(Cl)c5F)c4c3)c3ccccc3)nn2)CC1 [Example 628, (S)-6-(((1-(1-(tert-butyl)piperidin-4-yl)-1H-1,2,3-triazol-4-yl)(phenyl)methyl)amino)-8-chloro-4-((3-chloro-2-fluorophenyl)amino)quinoline-3-carbonitrile]
57 | 5 |  |  |  | Cc1c(C#N)cccc1[C@H](Nc1cc(Cl)c2ncc(C#N)c(NCC(C)(C)C)c2c1)c1cn(C2(C3CC3)CC2)nn1 [Example 1109, (S)-6-(((1-([1,1'-bi(cyclopropan)]-1-yl)-1H-1,2,3-triazol-4-yl)(3-cyano-2-methylphenyl)-methyl)amino)-8-chloro-4-(neopentylamino)quinoline-3-carbonitrile]
 |  | 110 | 4 |  | CCN1CC(Cn2cc([C@@H](Nc3cc(Cl)c4ncc(C#N)c(Nc5ccc(F)c(Cl)c5)c4c3)c3ccccc3)nn2)C1 [Example 747, (S)-8-chloro-4-((3-chloro-4-fluorophenyl)amino)-6-(((1-((1-ethylazetidin-3-yl)methyl)-1H-1,2,3-triazol-4-yl)(phenyl)methyl)amino) quinoline-3-carbonitrile]
 |  | 375 | 41 |  | N#Cc1cnc2c(Cl)cc(N[C@@H](c3ccccc3)c3cn(CC(O)C(F)(F)F)nn3)cc2c1Nc1ccc(F)c(Cl)c1 (stereo partly drawn) [Example 605, 8-chloro-4-((3-chloro-4-fluorophenyl)amino)-6-(((1S)-phenyl(1-(3,3,3-trifluoro-2-hydroxypropyl)-1H-1,2,3-triazol-4-yl)methyl)amino)quinoline-3-carbonitrile]
 |  | 4720 | 1890 |  | CC(C)(C)N1CCC(n2cc([C@@H](Nc3cc(Cl)c4ncc(C#N)c(Nc5ccc(C(F)(F)F)nc5)c4c3)c3ccc(Cl)cc3)nn2)CC1 [Example 750, (S)-6-(((1-(1-(tert-butyl)piperidin-4-yl)-1H-1,2,3-triazol-4-yl)(4-chlorophenyl)methyl)amino)-8-chloro-4-((6-(trifluoromethyl)pyridin-3-yl)amino)quinoline-3-carbonitrile]
 |  | 257 | 9 |  | CC[C@@H](Nc1c(C#N)cnc2c(Cl)cc(N[C@H](c3cn(C4CC4)nn3)c3ccccc3F)cc12)c1ccccc1 [Example 429, 8-chloro-6-(((S)-(1-cyclopropyl-1H-1,2,3-triazol-4-yl)(2-fluorophenyl)methyl)amino)-4-(((R)-1-phenylpropyl)amino)quinoline-3-carbonitrile]
 |  | 387 |  | 9 | CC(C)(CNc1c(C#N)cnc2c(Cl)cc(N[C@@H](c3ccc(F)cc3)c3cn(C4CC4)nn3)cc12)c1ccccc1 [Example 350, (S)-8-chloro-6-(((1-cyclopropyl-1H-1,2,3-triazol-4-yl)(4-fluorophenyl)methyl)amino)-4-((2-methyl-2-phenylpropyl)amino) quinoline-3-carbonitrile]
98 | 7 |  |  |  | [2H][C@](Nc1cc(Cl)c2ncc(C#N)c(NCC(C)(C)C)c2c1)(c1ccc(Cl)cc1)c1cn(C2CCN(C(C)(C)C)CC2)nn1 [Example 929, (S)-6-(((1-(1-(tert-butyl)piperidin-4-yl)-1H-1,2,3-triazol-4-yl)(4-chlorophenyl)methyl-d)amino)-8-chloro-4-(neopentylamino)quinoline-3-carbonitrile]
 |  | 128 | 5 |  | CCN1CCC(n2cc(C(Nc3cc(Cl)c4ncc(C#N)c(Nc5ccc(F)c(Cl)c5)c4c3)c3cccc(F)c3)nn2)CC1 (stereo not shown) [Example 907, 8-chloro-4-((3-chloro-4-fluorophenyl)amino)-6-(((1-(1-ethylpiperidin-4-yl)-1H-1,2,3-triazol-4-yl)(3-fluorophenyl)methyl)amino) quinoline-3-carbonitrile]
 |  | 1100 | 22 |  | CC(C)(C)N1CCC(n2cc([C@@H](Nc3cc(Cl)c4ncc(C#N)c(Nc5cccc(Cl)c5F)c4c3)c3ccc(Cl)cc3)nn2)CC1 [Example 739, (S)-6-(((1-(1-(tert-butyl)piperidin-4-yl)-1H-1,2,3-triazol-4-yl)(4-chlorophenyl)methyl)amino)-8-chloro-4-((3-chloro-2-fluorophenyl)amino)quinoline-3-carbonitrile]
 |  | 610 | 60 |  | N#Cc1cnc2c(Cl)cc(N[C@@H](c3ccccc3)c3cn(C4CNCC(F)(F)C4)nn3)cc2c1Nc1ccc(F)c(Cl)c1 (stereo partly drawn) [Example 748, 8-chloro-4-((3-chloro-4-fluorophenyl)amino)-6-(((1S)-(1-(5,5-difluoropiperidin-3-yl)-1H-1,2,3-triazol-4-yl)(phenyl)methyl)amino) quinoline-3-carbonitrile]
 |  | 2880 |  | 119 | [2H][C@](Nc1cc(Cl)c2ncc(C#N)c(NC3CCC3)c2c1)(c1ccc(F)cc1)c1cn(C2CC2)nn1 [Example 215, (S)-8-chloro-4-(cyclobutylamino)-6-(((1-cyclopropyl-1H-1,2,3-triazol-4-yl)(4-fluorophenyl)methyl-d)amino)quinoline-3-carbonitrile]
 |  | > 10000 | 332 |  | Cn1cc(Nc2c(C#N)cnc3c(Cl)cc(N[C@@H](c4ccccc4)c4c[nH]nn4)cc23)ccc1=O [Example 482, (S)-8-chloro-4-((1-methyl-6-oxo-1,6-dihydropyridin-3-yl)amino)-6-((phenyl (1H-1,2,3-triazol-4-yl)methyl)amino)quinoline-3-carbonitrile]
 |  | 1520 |  | 187 | N#Cc1cnc2c(Cl)cc(NC(c3ccc(F)cc3)c3ccon3)cc2c1Nc1ccc(F)c(Cl)c1 (stereo not shown) [Compound 7]
 |  | 833 |  | 57 | [2H]C(Nc1cc(Cl)c2ncc(C#N)c(NC(CS(C)(=O)=O)c3ccccc3)c2c1)(c1ccc(F)cc1)c1cn(C2CC2)nn1 (stereo not shown) [Example 193, 8-chloro-6-(((1-cyclopropyl-1H-1,2,3-triazol-4-yl)(4-fluorophenyl)methyl-d)amino)-4-((2-(methylsulfonyl)-1-phenylethyl)amino) quinoline-3-carbonitrile]
 |  | 213 |  | 7 | [2H][C@@](Nc1cc(C#N)c2ncc(C#N)c(NCC(C)(C)C)c2c1)(c1cn(C2CC2)nn1)c1ccccc1Cl [Example 152, (S)-6-(((2-chlorophenyl) (1-cyclopropyl-1H-1,2,3-triazol-4-yl)methyl-d)amino)-4-(neopentylamino) quinoline-3,8-dicarbonitrile]
 |  | 414 |  | 2 | CNC(=O)c1cccc([C@H](Nc2cc(C#N)c3ncc(C#N)c(NCC(C)(C)C)c3c2)c2cn(C3CC3)nn2)c1 [Example 55, (S)-3-((1-cyclopropyl-1H-1,2,3-triazol-4-yl) ((3,8-dicyano-4-(neopentylamino)quinolin-6-yl)amino)methyl)-N-methylbenzamide]
 |  | 1640 |  | 139 | [2H][C@](Nc1cc(OC)c2ncc(C#N)c(NCC(C)(C)C)c2c1)(c1ccc(F)cc1)c1cn(C2CC2)nn1 [Example 172, (S)-6-(((1-cyclopropyl-1H-1,2,3-triazol-4-yl)(4-fluorophenyl)methyl-d)amino)-8-methoxy-4-(neopentylamino) quinoline-3-carbonitrile]
 |  | 1610 |  | 47 | N#Cc1cnc2c(Cl)cc(N[C@H](c3c[nH]nn3)c3ccccc3Cl)cc2c1Nc1cnc(F)c(F)c1 [Example 376, (S)-8-chloro-6-(((2-chlorophenyl)(1H-1,2,3-triazol-4-yl)methyl)amino)-4-((5,6-difluoropyridin-3-yl)amino)quinoline-3-carbonitrile]
 |  | > 10000 | 5280 |  | CC(C)(C)N1CCC(n2cc([C@@H](Nc3cc(Cl)c4ncc(C#N)c(Nc5cccc6[nH]c(=O)[nH]c56)c4c3)c3ccccc3)nn2)CC1 [Example 479, (S)-6-(((1-(1-(tert-butyl)piperidin-4-yl)-1H-1,2,3-triazol-4-yl)(phenyl)methyl)amino)-8-chloro-4-((2-oxo-2,3-dihydro-1H-benzo[d]imidazol-4-yl)amino) quinoline-3-carbonitrile]
202 | 8 |  |  |  | CC(C)(C)CNc1c(C#N)cnc2c(Cl)cc(N[C@@H](c3ccccc3)c3cn(C(F)(F)C(N)=O)nn3)cc12 [Example 970, (S)-2-(4-(((8-chloro-3-cyano-4-(neopentylamino)quinolin-6-yl)amino)(phenyl)methyl)-1H-1,2,3-triazol-1-yl)-2,2-difluoroacetamide]
234 | 4 |  |  |  | CC(C)(C)CNc1c(C#N)cnc2c(C#N)cc(N[C@H](c3cn(C(C)(C)C(N)=O)nn3)c3ccccc3Cl)cc12 [Example 1021, (S)-2-(4-((2-chlorophenyl) ((3,8-dicyano-4-(neopentylamino)quinolin-6-yl)amino)methyl)-1H-1,2,3-triazol-1-yl)-2-methylpropanamide]
